The values below come from patent US20020052331A1, “Compositions and methods for antisense inhibition of protein translation” (priority 1990, published 2002).

Common to all, as to type: cell-based, human
Series [1] deals with ICAM-1 mRNA. Description: Northern blot analysis of ICAM-1 transcript abundance in oligomer-treated HUVECs. Conditions: FIG. 2. An excerpt:
Total cellular RNA was isolated from oligomer-treated HUVECs and analyzed to determine if inhibition of ICAM-1 protein expression resulted from antisense-promoted degradation of the target transcript.
(§1) Total cellular RNA was isolated by cellular lysis using CATRIMOX-14 surfactant (Iowa Biotechnology Group, Oakdale Iowa). Isolated RNA was separated on a 1.2% agarose gel containing 1.1% formaldehyde, then transferred to a nylon membrane and UV crosslinked to the membrane using a Stratagene UV crosslinker 2400 (La Jolla Calif.). Blots were hybridized with cDNA probes in QUICKHYB solution (Stratagene). Blots were washed twice at room temperature in 2×SSC with 0.1% SDS for 10 minutes each and then once in […] SSC with 0.1% SDS at 65° C. for 30 minutes.

Series [2] has as its system E-selectin mRNA. Description: ELISA of E-selectin expression in HUVECs. Conditions: HUVECs; for IC50: ELISA, read-out: IC50 for reduction of E-selectin expression. In general terms: An ELISA detects its analyte on a solid surface through an enzyme-linked reagent.
Series [3] concerns E-selectin mRNA. Kind of series: Northern blot analysis of E-selectin mRNA levels in oligomer-treated HUVECs.
Source text: ISIS 11929 is an antisense oligonucleotide targeted to E-selectin, another cellular adhesion molecule, and was included in this experiment as a control.
as §1

The subject of series [4] is ICAM-1 mRNA. Description: Cell surface ICAM-1 expression in U937 cells after electroporation of MMI oligomers. Conditions: six concentrations 4 to 40 μM, N.A. = IC50 not obtained in the given dose range, read-out: Antisense activity (IC50) Electroporate. As to the method:
ISIS 14293-14296 are corresponding oligomers with alternating MMI/P═S backbones.
U937 cells were washed once in cold Opti-MEM (Gibco-BRL, Grand Island, N.Y.) and resuspended at 4×10^6 cells/ml. Oligomer was added to 0.1 ml of cells and incubated for 10 minutes on ice. Cells were transferred to a 1 mm gap electrode (BTX, San Diego, Calif.) and electroporated at 0.75 kV/cm. Cells were incubated at room temperature for 10 minutes and transferred to pre-warmed medium. Cells were allowed to rest for 1.5 hours before ICAM-1 expression was induced with 5 ng/ml TNF-αovernight. Cells were stained with an anti-ICAM-1-PE antibody (Pharmingen, San Diego CA) the next day.

Series [5] deals with ICAM-1 mRNA. Description: Cell surface ICAM-1 expression in HUVECs after Lipofectin delivery of MMI oligomers. Conditions: six concentrations 6.2 to 200 nM, N.A. = IC50 not obtained in the given dose range, read-out: Antisense activity (IC50) Lipofectin.

Read-outs that look alike come from different tables or passages of the source. Strand notation (5' to 3'): a small letter for the sugar, then the base; units joined by * are phosphorothioate-linked, units joined directly phosphodiester-linked; [ ] holds rarer units or linkages, { } end groups; capitals alone tell only the bases. [MMI] = methylene(methylimino) internucleoside backbone linkage; e = 2'-O-(2-methoxyethyl) (MOE); [5mC] = 5-methylcytosine; d = 2'-deoxy (DNA)

Broadly, the IC50 is the midpoint of a concentration-inhibition curve. Consider “ISIS 11929: SEQ ID NO: 3, P═O all 2′-MOE except 3′ nt is deoxy, all C's 5meC; E-selectin 5′ cap (antisense eGeAeAeGeTe[5mC]eAeGe[5mC]e[5mC]eAeAeGeAeAe[5mC]eAeGe[5mC]dT)”, for which, in series [1], the “relative abundance of the ICAM-1 transcript (Northern blot)” value was “did not cause an increase”. Also, the IC50 in series [2] (FIG. 5 experiment) and in series [2] (equivalent (second) experiment) was less than 3 nM throughout. Also, the “IC50 for inhibition of E-selectin expression” value in series [2] (FIG. 3 experiment) was “well below this”. Further, the “inhibition of E-selectin expression” value in series [2] (oligomer concentration of 50 nM) is given as roughly 100%. In addition, in series [3], the “E-selectin mRNA levels” value is recorded as “did cause an increase”.

In the case of “ISIS 14293: T*CT*GA*GT*AG*CA*GA*GG*AG*CT*C (SEQ ID NO: 1), alternating P═S/MMI; ICAM-1 n.t. 1-20 (TCTGAGTAGCAGAGGAGCTC; linkages [MMI]s[MMI]s[MMI]s[MMI]s[MMI]s[MMI]s[MMI]s[MMI]s[MMI]s[MMI] (s phosphorothioate, o phosphodiester), sugars by position and methylation of C not given here; 3'-terminal nucleotide 2'-deoxy, non-terminal cytosines 5-methylated)”, the IC50 in series [4] came to 32000 nM; in series [5], 115 nM.

Take “ISIS 14294: T*GA*GT*AG*CA*GA*GG*AG*CT*C (SEQ ID NO: 12), alternating P═S/MMI; ICAM-1 n.t. 1-18 (TGAGTAGCAGAGGAGCTC; linkages [MMI]s[MMI]s[MMI]s[MMI]s[MMI]s[MMI]s[MMI]s[MMI]s[MMI] (s phosphorothioate, o phosphodiester), sugars by position and methylation of C not given here; 3'-terminal nucleotide 2'-deoxy, non-terminal cytosines 5-methylated)”: the half-maximal inhibitory concentration (IC50) came to 20000 nM in series [4] and 175 nM in series [5].
